Measurements published in patent US11475578B2, “Method for analyzing behavior of cell, and use thereof” (TEIKYO UNIVERSITY, priority 2018, dated 2022).

Columns and labels:
[1] = system: epidermal keratinocytes; test: Monitoring of culture conditions by automatic cell tracking of epidermal keratinocyte colonies; format: cell-based, human; conditions: 10 ng/ml EGF added to the medium
Method: Human epidermal keratinocytes originating in neonate (purchased from KURABO) were cultured under the conditions of 37° C. and 10% CO2 using the mouse 3T3 fibroblasts treated with mitomycin C as feeder cells (refer to the reference for details of the method).
The cultured epidermal keratinocytes were subcultured on a 35-mm glass bottom dish, and time-lapse imaging was performed under the conditions of 37° C. and 10% CO2 in which imaging was automatically performed every 5 minutes with Olympus FV10i.
The automatic tracking system was applied to monitoring of culture conditions of epidermal keratinocytes (obtained and cultured in the same manner as that of Example 1-1).
Behaviors of epidermal keratinocytes under different culture conditions were compared in the same manner as that of Example 1-2. The cell locomotions were compared. Those of the case where the medium was exchanged on the day 4 of the culture (feeding) and the case where the medium was not exchanged (no feeding) were compared. […] In the lower diagrams of FIG. 14, positions of the nuclei at each time point are shown with lines.
In the culture system of the inventors of the present invention, epidermal keratinocytes show a spiral migration pattern in colonies. As clearly seen from FIG. 15, the trajectory lines in 2D images (upper side) and 3D images (lower side) twisted. […]

[2] = system: epidermal keratinocytes; conditions: as previously reported [7]; cited from earlier work

epidermal growth factor [EGF, epidermal growth factor (EGF) (Up state, #01-107) added to the culture medium]
migration speed [1]: did not change
migration pattern ([1]; without EGF, spiral migration pattern in colonies): changed
migration of epidermal keratinocytes [2]: induces migration of epidermal keratinocytes to the outside
